The values below come from patent US12491230B2, “Peptides for use in promoting transport of glucose” (NURITAS LIMITED, priority 2015, dated 2025).

No end group written: not given here.

Data set [1] has as its system GLUT4. Nature of the data set: Measurement of GLUT4myc translocation in L6 myotubes (antibody-coupled colorimetric assay). The class given is cell-based, rat. The settings on record: L6-GLUT4myc cells. The text has this:
We determined the effect of six synthetic peptides (SP1-6) and four peptide compositions on in vitro GLUT4 translocation using the L6 rat skeletal muscle cell line. A clone of the L6 cell line containing overexpression of GLUT4 tagged with a c-myc epitope (courtesy of Prof. Amira Klip, Hospital for Sick Children, Toronto) was used to investigate the efficacy of each synthetic peptide and peptide composition for effects on GLUT4 translocation in a dose-response design.
L6-GLUT4myc cells were grown in 10% FBS and 2 μg/ml blasticidin. Cells were grown for 48-72 hours before being seeded in 24-well plates at 15,000 cells per well in 2% FBS and allowed to differentiate for 6 to 8 days prior to experimentation.
(§1) L6-GLUT4myc cells were serum-starved for three hours prior to incubation with 100 nM of insulin for 30 mins, or 200, 20, 2.0 and 0.2 μM of SP, and 2, 1, 0.5 and 0.25 mg/ml of peptide composition for 3 hours respectively. A 3 hour incubation period was selected based on previous findings identifying that incubation with branch chain amino acid containing di-peptides for 3 hours increases glucose uptake in L6 myotubes 1. Treatments were staggered in order to determine GLUT4myc translocation at the same time point.
The quantity of myc-tagged GLUT4 at the cell surface was measured by antibody-coupled colorimetric assay. Briefly, after incubation with either insulin for 30 mins or synthetic peptide or peptide composition for 3 hours respectively, L6-GLUT4myc cells were fixed via incubation with 3% paraformaldehyde (PFA). A 0.1 M glycine solution was then added to quench PFA and cells were blocked with 5% goat serum. The myotube monolayer was exposed to anti-myc antibody and then incubated with peroxidase conjugated donkey anti-mouse IgG. 1 mL of o-phenylenediamine dihydrochloride (OPD) reagent was added to each well and this reaction was stopped by adding 250 μl/well of 3 M HCL. To determine GLUT4 translocation to cell surface, a measured aliquot of each condition was determined spectrophotometrically on a plate reader using absorbance at 492 nm. […]

The test system of data set [2] is L6-GLUT4myc cells. Nature of the data set: Cell viability / cell death seen in the GLUT4 translocation experiment. It is filed as cell-based, rat. The settings on record: synthetic peptide 200 μM, 3 hours. Here is the method: as §1

With VLDLAIPVNRPGQL [SP2], in data set [1] (dose-response design), the “stimulatory effect on skeletal muscle GLUT4 translocation (conclusion of the experiment)” value is on record as “displayed a trend for stimulatory effect”. In data set [1] (synthetic peptide 0.2-2 μM, 3 hours), the GLUT4 translocation entry was “trend for SP2 to increase GLUT4 translocation”.
On to insulin [reference compound], for which the “average increase in cell surface GLUT4 translocation compared to untreated control” value in data set [1] (100 nM insulin, 30 mins) came out at 1.72 fold.
In the case of DTFYNAAWDPSNR [SP1, DTFYNAAWDPSNR], the cell viability entry in data set [2] is reported as “poor cell viability”.
